Assay results as given in PMC12281475, “Mediator Kinase Inhibitor Selectivity and Activity in Colorectal Cancer” (ACS Chemical Biology, 2025).

Tests used:
[1] = Plasma total concentration of compound (LC-MS/MS); format: in vivo, mice; settings: 6 h after final dose
Description: for 20 mins at room temperature. […]
and body weights recorded. […]
quantification and pharmacodynamic biomarker analyses. All samples were stored […]
Plasma homogenates were extracted with 3 equivalent volumes of methanol containing olomoucine (500 nM) as an internal standard. Extracts were quantified for […]
ranging from 2 nM to 50 000 nM) with 4 quality control samples (25, 250,2500, and 7500 nM in duplicate) included at the beginning and the end of the analytical run.
Plasma homogenates were measured by LC−MS/MS on a Waters TQS following a separation on a Waters Acquity BEH C18 column (50 mm × 2.1 mm; 1.7 μm) with conditions of 0.1% formic acid (mobile phase A) and methanol (mobile phase B). The column was equilibrated at initial condition of 95% A and 5% B, linear gradient over 3 min to 100% B, held over 1 min, followed by linear gradient back to 5% B over 0.1 min, […]
mode by multiple reaction monitoring, 412.17 > 376.40at 33 eV for compound 109, […]
Phospho-proteome analyses
Adherent COLO205 cells were washed with PBS and cells lysed using urea lysis buffer (9 M Urea, 20 mM HEPES, pH 8.0, 1 mM beta-glycerophosphate, 1 mM sodium vanadate, 2.5 mM sodium pyrophosphate) and stored at -80 °C prior to analysis. The supernatants were reduced with 100 mM DTT for 30 minutes at 55 °C, followed by alkylation with 50 mM iodoacetimide for 15 minutes at ambient temperature in the dark. […]

SW620 cells = assay: Tumour spheroid growth assay (CellTitre-Glo), SW620 parent and knockout clones; format: cell-based, human; settings: SW620 spheroids
[2] = system: MED14 phosphorylation in COLO205 cells; assay: CDK-phospho-motif immunoprecipitation and MED14 immunoblot, COLO205; format: cell-based, human; settings: COLO205, 350 nM, 6 h
Text: In the absence of phospho-specific antibodies targeting these sites, we employed immunoprecipitation using CDK-phospho-motif antibodies followed by immunoblotting with a MED14 antibody to validate the observed reduction in MED14 phosphorylation. […] In contrast, phosphorylation of MED13 and MED26 was reduced in only 2 of 5 and 5 of 10 CDK-phospho-motif peptides, respectively (Figure E and Supporting Figure S2C). This heterogeneous phosphorylation pattern complicates validation using motif-based immunoprecipitation, as reductions at specific phospho-sites may be obscured by unchanged CDK-motif phosphorylation at other sites. […]
Cell monolayers were washed with PBS twice and lysed using a modified RIPA buffer, mRIPA (50 mM TRIS-HCl pH 7.4, 1% NP-40 substitute, 0.5% NaDOC, 150 mM NaCl, 1 mM EDTA, 0.02% SDS and 1:100 dilution of proteinase and phosphatase inhibitor cocktail, (#5872, Cell Signaling Technology) with overnight freezing at -80 °C and sonication of the cell pellet. Lysates were clarified by centrifugation and supernatants collected and protein concentration determined by a bicinchoninic acid (BCA) assay. […]
= biological repeats; * = phosphorylated residue). (B) STAT1SER727 phosphorylation in COLO205 or SW620 cell lysates detected using two different phospho-STAT1SER727-specific antibodies following treatment with 350 nM CCT251545 for 6 hours. […]

| SMILES | plasma total concentrations, parent versus knockout clones ([1]; 14-20 days, 42 mg/kg p.o qd 5/7 days, exception CDK8-KO-cl2 (p < 0.05)) | plasma levels in parent versus individual knockout clones ([1]; 3 days, 42 mg/kg p.o. qd) | spheroid growth of CDK8 and double knockout clones (SW620 cells) | spheroid growth of CDK19 knockout clones (SW620 cells) | MED14 phosphorylation (CDK-phospho-motif immunoprecipitation, MED14 immunoblot) [2] |
| --- | --- | --- | --- | --- | --- |
| Cn1ncc2cc(-c3cnc(N)c(Cl)c3N3CCC4(CCNC4=O)CC3)ccc21 [CCT251921] | no significant differences | no significant difference |  |  |  |
| Cn1cc(-c2ccc(-c3cncc(Cl)c3N3CCC4(CCNC4=O)CC3)cc2)cn1 [CCT251545] |  |  | insensitive to treatment | growth inhibition similar to the parental line | decrease was evident |
